Values of other authors in patent publication US20240115593A1, “METHISOPRINOL COMPOSITIONS” (priority 2020, published 2024).

Details: water solution without additional 1-dimethylaminopropan-2-ol 4-acetamidobenzoate, stored at +20° C. to +2° C.

time after which Methisoprinol crystallizes out: 6 days
Substance: Methisoprinol
